Legend:
MC4R [1] = target: MC4R (Mus musculus, UniProt P56450); experiment: Short-circuit current; assay type: cell-based
MC4R [2] = experiment: α-MSH ISC response in human colon mucosa after antagonist pretreatment; assay type: cell-based; settings: BIBO 300 nM, BIIE 1 μM, HS014 100 nM, each alone, 30 min prior to α-MSH
GPR119 = experiment: Short-circuit current; assay type: cell-based, mouse; settings: MC4R−/− mice, 10 μM apical

Chain of MC4R (Mus musculus, UniProt P56450) (P56450 whole entry): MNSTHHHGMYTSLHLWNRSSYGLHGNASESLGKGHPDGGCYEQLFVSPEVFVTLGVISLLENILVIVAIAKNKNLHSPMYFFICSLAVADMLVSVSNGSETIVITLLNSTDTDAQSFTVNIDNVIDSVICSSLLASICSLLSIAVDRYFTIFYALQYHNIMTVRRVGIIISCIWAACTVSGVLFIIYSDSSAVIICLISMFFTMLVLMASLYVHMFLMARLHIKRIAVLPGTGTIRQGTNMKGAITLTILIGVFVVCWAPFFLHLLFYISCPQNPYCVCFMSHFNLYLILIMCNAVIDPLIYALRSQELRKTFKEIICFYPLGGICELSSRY

SMILES | Effect of pretreatment on α-MSH (1 μM, bl) ISC response in mouse colon (MC4R [1]) | Effect of pretreatment on α-MSH (1 μM, bl) ISC response in human colon mucosa (MC4R [2]) | Response in MC4R−/− mucosae versus MC4R+/+ mucosae (GPR119)
NC(=O)NCc1ccc(CNC(=O)[C@@H](CCCN=C(N)N)NC(=O)C(c2ccccc2)c2ccccc2)cc1 [BIBO3304] | almost completely blocked | blockade | –
N=C(N)NCCC[C@H](NC(=O)CC1(CC(=O)N2CCN(C3c4ccccc4NC(=O)c4ccccc43)CC2)CCCC1)C(=O)NCCn1c(=O)n(-c2ccccc2)n(-c2ccccc2)c1=O (some centres unmarked) [BIIE0246] | – | not by BIIE alone | –
CC(C)(C)OC(=O)N1CCC(OCc2nc(-c3ccncc3)no2)CC1 [PSN632408] | – | – | not significantly different
NC1=N[C@H](O)[C@H]2[C@H]3O[C@]4(O)O[C@@H]([C@@H](O)[C@@]2(N1)[C@@H]4O)[C@]3(O)CO [tetrodotoxin] | not tetrodotoxin (TTX) sensitive | – | –

Reference: paper PMC4255280 (Cell metabolism, 2014)
